Patent US20080188540A1, “PHARMACEUTICAL COMPOSITIONS CONTAINING SUBSTITUTED INDOLE ACID DERIVATIVES AS INHIBITORS OF PLASMINOGEN ACTIVATOR INHIBITOR-1 (PAI-1)” (Wyeth, priority 2007, published 2008)
In brackets after ≈: the same amount, converted by molar mass. Several values for one entry are separate records, joined by “and”; a condition that tells them apart may be missing. Identical values can stand only once. Entries after “also recorded” stand apart in the source; their conditions may differ. Like-named read-outs stand apart in the source and are kept apart here.

How the values were obtained:
[1] = Solubility profile (free acid in HCl/NaOH solution, centrifugation, supernatant assayed by HPLC); assay type: physicochemical
Source text: In some embodiments, the [1-(4-tert-Butylbenzyl)-5-(3-methylphenyl)-1H-indol-3-yl](oxo)acetic acid used with the composition of the invention is micronized.

[2] = Bioavailability of three formulations, single oral gavage dose, plasma pharmacokinetics; assay type: in vivo; settings: Formula C, fasted male dogs, individual dogs and Mean; for Plasma concentration: oral 300 mg/kg
Protocol: Three formulations were evaluated for the bioavilability of [1-(4-tert-butylbenzyl)-5-(3-methylphenyl)-1h-indol-3-yl](oxo)acetic acid in male dogs. Following a single oral (gavage, 300 mg/kg) dose of [1-(4-tert-butylbenzyl)-5-(3-methylphenyl)-1h-indol-3-yl](oxo)acetic acid, blood samples were drawn at 0 (predose), 0.25, 0.5, 1, 2, 3, 4, 6, 8, 10, 12, 24 and 30 hours. The pharmacokinetic parameters, AUC, Cmax, tmax and t1/2, were determined for each dog, and descriptive statistics were calculated for comparison among formulations.
Individual plasma concentrations over time after dosing Formula C are tabulated and plotted in Table 2 and FIG. 2 respectively.

Compound: Cc1cccc(-c2ccc3c(c2)c(C(=O)C(=O)O)cn3Cc2ccc(C(C)(C)C)cc2)c1 [[1-(4-tert-Butylbenzyl)-5-(3-methylphenyl)-1H-indol-3-yl](oxo)acetic acid]
- solubility enhancement ([1]; 2% Tween80/0.5% methylcellulose solution versus water): 26.000 fold
- solubility ([1]; 2% Tween80/0.5% methylcellulose solution, pH 3.5, aqueous with cosolvent or surfactant or cyclodextrin, read-out: solubility): 580 µg/mL (≈ 1360 µM)
- solubility ([1]; aqueous HCl/NaOH solution, aqueous buffer, thermodynamic from solid, in the ionized form (so in the source), read-out: aqueous solubility): ~0.25 µg/mL (≈ 0.588 µM)
- pH-solubility profile ([1]; free acid in HCl/NaOH solution, 24 hours equilibration (2 hours for pH<4)): Above pH 4, solubility increases with increasing pH up to pH˜8; also recorded: Above pH 8, solubility decreases due to precipitation of the sodium salt
- aqueous solubility ([1]; upon ionization in aqueous media): approximately 24 uG/mL
- solubility at 24 h ([1]; water, thermodynamic from solid, neutral pH 6.9): 24 µg/mL (≈ 56.4 µM)
- Plasma concentration ([2]; 0.25 hours after dose): 2200 ng/mL and 3390 ng/mL and 3290 ng/mL
- Plasma concentration ([2]; 0.5 hours after dose): 7500 ng/mL and 10400 ng/mL and 9190 ng/mL
- Plasma concentration ([2]; 1 hour after dose): 18100 ng/mL and 21100 ng/mL and 20000 ng/mL
- Plasma concentration ([2]; 2 hours after dose): 26300 ng/mL and 34700 ng/mL and 34100 ng/mL
- Plasma concentration ([2]; 4 hours after dose): 29300 ng/mL and 31900 ng/mL and 46600 ng/mL
- Plasma concentration ([2]; 6 hours after dose): 26900 ng/mL and 30300 ng/mL and 48000 ng/mL
- Plasma concentration ([2]; 8 hours after dose): 26500 ng/mL and 24000 ng/mL and 37600 ng/mL
- Plasma concentration ([2]; 10 hours after dose): 25300 ng/mL and 40100 ng/mL and 15900 ng/mL and 28200 ng/mL
- Plasma concentration ([2]; 12 hours after dose): 19700 ng/mL and 43600 ng/mL and 12400 ng/mL and 22300 ng/mL
- Plasma concentration ([2]; 24 hours after dose): 4720 ng/mL and 25900 ng/mL and 2410 ng/mL and 21900 ng/mL
- Plasma concentration ([2]; 30 hours after dose): 2610 ng/mL and 15200 ng/mL and 1240 ng/mL and 10600 ng/mL
- concentration at 0.25 h ([2]; male, dog, in vivo, po, 300 mg/kg, 0.25 hours after dose): 2330 ng/mL
- concentration at 0.5 h ([2]; male, dog, in vivo, po, 300 mg/kg, 0.5 hours after dose): 8190 ng/mL
- concentration at 1 h ([2]; male, dog, in vivo, po, 300 mg/kg, 1 hour after dose): 16700 ng/mL
- concentration at 2 h ([2]; male, dog, in vivo, po, 300 mg/kg, 2 hours after dose): 30000 ng/mL
- concentration at 4 h ([2]; male, dog, in vivo, po, 300 mg/kg, 4 hours after dose): 43000 ng/mL
- concentration at 6 h ([2]; male, dog, in vivo, po, 300 mg/kg, 6 hours after dose): 39400 ng/mL
- concentration at 8 h ([2]; male, dog, in vivo, po, 300 mg/kg, 8 hours after dose): 31900 ng/mL
